Values of other authors in patent US20200030265A1, “ANTI[…] AND USES THEREOF” (CSP PHARMA, INC., priority 2017, published 2020).

Test system: ASDs mouse model
Conditions: includes core social deficits, sensorimotor coordination, Purkinje cell loss, P2Y2 and P2X7 expression (Naviaux et al. 2013)

Structure (SMILES): Cc1ccc(C(=O)Nc2ccc(S(=O)(=O)O)c3cc(S(=O)(=O)O)cc(S(=O)(=O)O)c23)cc1NC(=O)c1cccc(NC(=O)Nc2cccc(C(=O)Nc3cc(C(=O)Nc4ccc(S(=O)(=O)O)c5cc(S(=O)(=O)O)cc(S(=O)(=O)O)c45)ccc3C)c2)c1 [suramin, Suramin]
- multisystem abnormalities that defined the ASD-like phenotype corrected: 16
